Results published in patent publication US20100093645A1, “SMAC Peptidomimetics and the Uses Thereof” (priority 2004, published 2010).
pEC50, pKd, pKi: −log10 of the molar value. Several values for one entry are separate records, joined by “and”; a condition that tells them apart may be missing. Equal values may be shown once. Read-outs that look alike come from different tables or passages of the source. Square brackets hold non-standard residues; d marks the D form. Peptide text beside a SMILES is read from it. * marks the point of attachment. 6FAM = O=C1OC2(c3ccc(O)cc3Oc3cc(O)ccc32)c2cc(C(=O)*)ccc21; Abu = CC[C@H](N)C(=O)O; NHPr = CCCN*

How the values were obtained:
[1] = system: MDA-231 breast cancer cells; experiment: Apoptosis by Annexin V-FITC/propidium iodide flow cytometry in MDA-231 cells, alone or with CDDP; assay type: cell-based, human; conditions: 42 hours
Procedure: Another experiment was carried out in which MDA-231 breast cancer cells in 6-well plates were treated with SH-97 and CDDP, alone or in combination, for 42 hours. Cells were collected and stained with Annexin V-FITC and propidium iodide. The fluorescence of individual cells was analyzed by flow cytometry. 25 and 50 μM CDDP induced about 30% and about 45%, respectively, of cancer cells to undergo apoptosis as compared to control cells (FIG. 8). Combination of 25 or 50 μM CDDP and 10 μM SH-97 induced about 50% and 90% apoptosis over control cells, respectively (FIG. 8). […] (FIG. 8).

PC-3 cells [2] = experiment: Apoptosis by Annexin V-FITC staining in PC-3 cells, alone or with CDDP; assay type: cell-based, human
Procedure: […]. […] […]. The experiment used PC-3 cells which express high levels of XIAP and cIAP-1/2 proteins and cisplatin (CDDP) as the chemotherapeutic drug. CDDP is a DNA damaging agent and can effectively induce apoptosis in PC-3 cells and is also a clinically used chemotherapeutic drug for prostate cancer.
PC-3 cells were treated with CDDP, Smac peptides and peptidomimetics alone or in combination for 42 hours and apoptosis was analyzed by Annexin V-FITC staining. […] Combination of 25 μM CDDP and 10 μM or 25 μM SH-97 induced 29.3%±1.9% and 35.8%±0.4% apoptosis over control cells, respectively (FIG. 6A). […].
In a similar experiment, PC-3 cells were treated with the Smac peptidomimetic CJ-445 (Table 3) and CDDP as described above. Combination of 25 μM CDDP and 5 μM or 10 μM CJ-445 induced about 30% and about 35% apoptosis over control cells, respectively (FIG. 7).

[3] = target: T1, human XIAP-BIR3 protein (residues 241-356) (Homo sapiens, UniProt P98170); experiment: biochemical
Target sequence in this assay (P98170 241-356): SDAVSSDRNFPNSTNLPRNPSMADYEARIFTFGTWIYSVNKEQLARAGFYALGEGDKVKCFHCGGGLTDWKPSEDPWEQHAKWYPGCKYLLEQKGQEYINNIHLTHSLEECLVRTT

[4] = system: MDA-231 breast cancer cell line; experiment: MTT cell viability assay in MDA-231 cells; assay type: cell-based; conditions: Homo sapiens, MDA-MB-231, 120 h, read-out: EC50 growth inhibition
Procedure: (§1) . The cells were then incubated at 37 C with 5% CO2 for 5 days, followed by detection of cell viability with the MTT assay. Untreated cells were used as 100% growth. […].

PC-3 cells [5] = experiment: MTT cell viability assay in PC-3 cells; assay type: cell-based; conditions: Homo sapiens
Procedure: as §1

PC-3 cells [6] = experiment: Clonogenic assay with X-ray radiation in PC-3 cells
[7] = target: T1, human XIAP-BIR3 protein (residues 241-356); experiment: Fluorescence polarization saturation (direct) binding of labeled Smac peptides; conditions: 5 nM labeled peptide, protein 0 to 40 μM, read-out: Kd value (dissociation constant) to XIAP-BIR3
[8] = target: human XIAP-BIR3 protein (residues 241-356) with a His tag (human) (UniProt P98170); experiment: fluorescence polarization, saturation; 5 nM peptide titrated with 0 to 40 µM protein
[9] = target: human XIAP-BIR3 protein (residues 241-356) with a His tag (human) (UniProt P98170); experiment: fluorescence polarization, saturation; against S9F as reference
[10] = target: human XIAP-BIR3 protein (residues 241-356) with a His tag (human) (UniProt P98170); experiment: fluorescence polarization; 5 nM SM5F and 0.030 µM XIAP-BIR3
[11] = target: human XIAP-BIR3 protein (residues 241-356) with a His tag (human) (UniProt P98170); experiment: competitive fluorescence polarization, SM5F tracer; against S9 as reference
[12] = PC-3, MTT, read-out: EC50 growth inhibition
[13] = 10 μM compound + 25 μM CDDP, 42 hours

Chain of human XIAP-BIR3 protein (residues 241-356) with a His tag (human) (P98170 241-356 limits assumed): as the sequence (P98170 241-356) above

`[NH2][Pt]([NH2])([Cl])[Cl]` [CDDP, cisplatin, reference compound] was tested, and the “apoptosis as compared to control cells” value ([1]; 25 μM CDDP alone) was “about 30%”, the “apoptosis as compared to control cells” value ([1]; 50 μM CDDP alone) was “about 45%” and the “apoptosis as compared to control cells” value (PC-3 cells [2]; 25 μM CDDP alone, 42 hours) was 12-15%.
For `CC(C)[C@H](NC(=O)[C@H](C)N)C(=O)N1CCC[C@H]1C(=O)NCCc1c[nH]c2ccccc12` [CJ-376], the pKi [3] was 5.40.
In the case of `Cc1ccc(CNC(=O)[C@@H]2CCCN2C(=O)[C@@H](NC(=O)[C@H](C)N)C(C)C)cc1` [CJ-409], the pKi [3] was 5.49.
In the case of `Cc1cccc(CNC(=O)[C@@H]2CCCN2C(=O)[C@@H](NC(=O)[C@H](C)N)C(C)C)c1` [CJ-410], the pKi [3] was 5.92.
`Cc1ccccc1CNC(=O)[C@@H]1CCCN1C(=O)[C@@H](NC(=O)[C@H](C)N)C(C)C` [CJ-411] was tested, and the pKi [3] was 6.27.
`COc1ccc(CNC(=O)[C@@H]2CCCN2C(=O)[C@@H](NC(=O)[C@H](C)N)C(C)C)cc1` [CJ-412] was tested, and the pKi [3] was 4.93.
For `COc1cccc(CNC(=O)[C@@H]2CCCN2C(=O)[C@@H](NC(=O)[C@H](C)N)C(C)C)c1` [CJ-413], the pKi [3] was 5.53.
With `COc1ccccc1CNC(=O)[C@@H]1CCCN1C(=O)[C@@H](NC(=O)[C@H](C)N)C(C)C` [CJ-414] the pKi [3] was 5.41.
In the case of `CCNC(=O)[C@@H]1CCCN1C(=O)[C@@H](NC(=O)[C@H](C)N)C(C)C` [CJ-418] (H-Ala-Val-Pro-NHEt), the pKi [3] was 4.26.
Compound `CC(C)[C@H](NC(=O)[C@H](C)N)C(=O)N1CCC[C@H]1C(=O)NCc1ccc(Cl)cc1` [CJ-419] has a pKi [3] of 6.01.
`CC(C)[C@H](NC(=O)[C@H](C)N)C(=O)N1CCC[C@H]1C(=O)NCc1cccc(Cl)c1` [CJ-420] was tested, and the pKi [3] was 5.85.
In the case of `CC(C)[C@H](NC(=O)[C@H](C)N)C(=O)N1CCC[C@H]1C(=O)NCc1ccccc1Cl` [CJ-421], the pKi [3] was 5.76.
Compound `CC(C)[C@H](NC(=O)[C@H](C)N)C(=O)N1CCC[C@H]1C(=O)NCc1ccc(O)cc1` [CJ-425] has a pKi [3] of 5.87.
`CC[C@H](N)C(=O)N[C@H](C(=O)N1CCC[C@H]1C(=O)NC(c1ccccc1)c1ccccc1)c1ccccc1` [CJ-444] was tested, and the pKi [3] was 4.87, the pEC50 ([4]; 5 days, MTT) was 3.89 to 3.92 and the pEC50 (PC-3 cells [5]; [12]) was 3.89 to 3.92.
In the case of `CC[C@H](N)C(=O)N[C@H](C(=O)N1CCC[C@H]1C(=O)NC(c1ccccc1)c1ccccc1)C1CCCCC1.Cl` [CJ-445], the pKi [3] was 5.95, the “apoptosis over control cells” value (PC-3 cells [2]; 5 μM compound + 25 μM CDDP, 42 hours) was “about 30%” and the “apoptosis over control cells” value (PC-3 cells [2]; [13]) was “about 35%”. For the same compound, the “sensitizing PC-3 cells to CDDP-induced apoptosis, compared with Smac8-C” value (PC-3 cells [2]; 10 μM compound vs 100 μM Smac8-C) was “as potent as 100 μM Smac8-C”, the pEC50 ([4]; 5 days, MTT) was 3.89 to 3.92 and the pEC50 (PC-3 cells [5]; [12]) was 3.89 to 3.92.
`C[C@H](N)C(=O)N[C@H](C(=O)N1CCC[C@H]1C(=O)NC(c1ccccc1)c1ccccc1)c1ccccc1` [CJ-450] showed a pKi [3] of 4.98, a pEC50 ([4]; 5 days, MTT) of 3.89 to 3.92 and a pEC50 (PC-3 cells [5]; [12]) of 3.89 to 3.92.
Work on `C[C@H](N)C(=O)N[C@H](C(=O)N1CCC[C@H]1C(=O)NC(c1ccccc1)c1ccccc1)C1CCCCC1` [CJ-451] yielded a pEC50 [4] of 3.89 to 3.92 and a pEC50 (PC-3 cells [5]; PC-3, read-out: EC50 growth inhibition) of 3.89 to 3.92.
Compound `CNC(=O)[C@@H]1CCCN1C(=O)[C@@H](NC(=O)[C@H](C)N)C(C)C` [CJ-452] (H-Ala-Val-Pro-NHMe) has a pKi [3] of 4.09.
Work on `CCCNC(=O)[C@@H]1CCCN1C(=O)[C@@H](NC(=O)[C@H](C)N)C(C)C` [CJ-453] (H-Ala-Val-Pro-NHPr) yielded a pKi [3] of 4.31.
In the case of `CC(C)[C@H](NC(=O)[C@H](C)N)C(=O)N1CCCC[C@H]1C(=O)NC(c1ccccc1)c1ccccc1` [CJ-458], the pKi [3] was 3.80.
Work on `C[C@H](N)C(=O)N[C@H](C(=O)N1CCC[C@@H]1C(=O)NC(c1ccccc1)c1ccccc1)C1CC1` [CJ-464-2] yielded a pKi [3] of 5.45.
Compound `C[C@H](N)C(=O)N[C@H](C(=O)N1CCC[C@H]1C(=O)NC(c1ccccc1)c1ccccc1)C1CCCC1` [CJ-467] has a pKi [3] of 6.43.
Work on `CC(C)[C@H](NC(=O)[C@H](C)N)C(=O)N1CC[C@H]1C(=O)NC(c1ccccc1)c1ccccc1` [CJ-469] yielded a pKi [3] of 6.11.
`C[C@H](N)C(=O)N[C@@H](CC1CCCCC1)C(=O)N1CCC[C@H]1C(=O)NC(c1ccccc1)c1ccccc1` [CJ-473] gave a pKi [3] of 6.25.
`CC(C)[C@H](NC(=O)[C@H](C)N)C(=O)N1CCC[C@H]1C(=O)NCc1c[nH]c2ccccc12` [CJ-488] was tested, and the pKi [3] was 4.39.
`CC(C)[C@H](NC(=O)[C@H](C)N)C(=O)N1CCC[C@H]1C(=O)NCc1cccc2ccccc12` [CJ-489] was tested, and the pKi [3] was 6.15.
For `CC(C)[C@H](NC(=O)[C@H](C)N)C(=O)N1CCC[C@H]1C(=O)NC(c1ccccc1)c1ccccc1` [Compound 11], the pEC50 [4] was 3.89 to 3.92.
For `CC[C@H](N)C(=O)N[C@H](C(=O)N1CCC[C@H]1C(=O)NC(c1ccccc1)c1ccccc1)C(C)C` [Compound 16], the “apoptosis over control cells” value ([1]; 10 μM compound + 25 μM CDDP) was “about 50%”, the “apoptosis over control cells” value ([1]; 10 μM compound + 50 μM CDDP) was roughly 90% and the “apoptosis over control cells” value (PC-3 cells [2]; [13]) was 29.3%±1.9%. For the same compound, the “apoptosis over control cells” value (PC-3 cells [2]; 25 μM compound + 25 μM CDDP, 42 hours) was 35.8%±0.4%, the “apoptosis induction by compound alone” value (PC-3 cells [2]; alone, 42 hours, SH-97 up to 50 μM) was “did not induce significantly more apoptosis” and the pEC50 [4] was 3.89 to 3.92. The “radiosensitization compared with Smac8-C” value (PC-3 cells [6]; 10 μM SH-97 vs 100 μM Smac8-C, 6 and 8 Gy) was “more effective than 100 μM of the cell-permeable Smac peptide Smac8-C”, the “reduction of colony formation as compared to radiation alone” value (shortened to “reduction of colony formation”) (PC-3 cells [6]; 6 Gy, 10 μM compound) was “more than 10 fold” and the “reduction of colony formation” value (PC-3 cells [6]; 6 Gy, 25 μM compound) was “more than 10 fold”. For the same compound, the “reduction of colony formation” value (PC-3 cells [6]; 8 Gy, 10 μM compound) was 40 fold, the “reduction of colony formation” value (PC-3 cells [6]; 8 Gy, 25 μM compound) was 50 fold and the “effect on activity of X-ray radiation” value (PC-3 cells [6]; 10 and 25 μM SH-97, 100 μM Smac8-C) was “significantly increased the activity of the radiation”. For the same compound, the “effect on colony formation by compound itself” value (PC-3 cells [6]; without radiation, 10 days) was “no significant effect”.
Compound `CC(C)[C@H](NC(=O)[C@H](C)N)C(=O)N1CCC[C@H]1CCc1ccccc1` [SH-64] has a pKi [3] of less than 3.70.
`CC(C)[C@H](NC(=O)[C@H](C)N)C(=O)N1CCC[C@H]1CNCc1ccccc1` [SH-80] gave a pKi [3] of 4.59.
`CC(C)[C@H](NC(=O)[C@H](C)N)C(=O)N1CCC[C@@H]1CNCc1ccccc1` [SH-81] was tested, and the pKi [3] was less than 3.70.
With `CC(C)[C@H](NC(=O)CN)C(=O)N1CCC[C@H]1CCCc1ccccc1` [SH-82] the pKi [3] was 5.49.
`CC[C@H](N)C(=O)N[C@H](C(=O)N1CCC[C@H]1C(=O)N[C@@H](Cc1ccccc1)c1ccccc1)C(C)C` [SH-98] showed a pKi [3] of 5.51.
Work on `CC[C@H](N)C(=O)N[C@H](C(=O)N1CCC[C@H]1C(=O)N[C@@H](c1ccccc1)c1ccc(CCCOC)cc1)C(C)C` [SH-103] yielded a pKi [3] of 7.00.
Work on `CC(C)[C@H](NC(=O)[C@H](C)N)C(=O)N1CCC[C@H]1COC(c1ccccc1)c1ccccc1` [SH-106] yielded a pKi [3] of 5.26.
For `CC[C@H](N)C(=O)N[C@@H](CCCNC(=N)N)C(=O)N1CCC[C@H]1C(=O)N[C@@H](Cc1ccccc1)C(=O)N[C@@H](CCCCNC(=O)c1ccc2c(c1)C1(OC2=O)c2ccc(O)cc2Oc2cc(O)ccc21)C(N)=O` [SM5F, AbuRPFK-FAM] (H-[Abu]RPFK(6FAM)-NH2; N-terminus and C-terminus assumed), the pKd [7] was 7.74 and 7.75.
With AVPIAQKS [Smac-8, reference compound] the “potentiation of the activity of CDDP in inducing apoptosis” value (PC-3 cells [2]; negative controls with CDDP) was “unable to potentiate the activity of CDDP”.
With “AbuRPFK-FAM, termed SM5F (fluorescently labeled mutated 5-mer Smac peptide)” the maximum binding [8] was 276 mP, the fold higher binding affinity than S9F [9] was 10 fold and the ratio of the Kd values between SM5F and S9F [9] was 7.2 fold. For the same compound, the percent of tracer saturated [10] was 60%.
Work on “unlabeled mutated Smac 5-mer peptide (SM5), AbuRPFK” yielded a ratio of the IC50 values for SM5 and S9 [11] of 6.7 fold.
